Data published in patent publication US4173654A, “Novel fluorohydrocarbons” (California Institute of Technology, priority 1977, dated 1979).
Where two headings read alike, the source gives them in different places.

Columns and labels:
[1] = Oxygen solubility measured by gas chromatograph having a thermal conductivity detector; assay type: physicochemical; details: 25° C., 760 mm O2 pressure
Experimental: Oxygen solubilities were measured at 25° C. and 760 mm O2 pressure for representative hybrid, fluoroolefin and prior art compounds by means of a gas chromatograph having a thermal conductivity detector and calculated from molar volume and ΔH(vap) by the method of Fedors (Polymer, Engr. Sci. 14 147 (1974). Good agreement was obtained as shown in the following table: […]

[2] = Literature values or other data (D, V, δ, BP); assay type: physicochemical
[3] = 3M data; cited from earlier work

SMILES	Measured O2 Solubility [1]	BP ([2]; 36mm)	D ([2]; unit not given)	V ([2]; unit not given)	δ ([2]; unit not given)	BP ([2]; 735mm)	D [2]	V [2]	δ [2]	BP ([2]; 750mm)	3M solubility data (Literature Values) [3]
CCOC(=O)CC(C(F)(F)F)(C(F)(F)F)C(F)(F)F	34.4 cc O2 /100 cc FC	53 °C	1.4895	205.5	7.39						
FC(F)(F)C(=C(C(F)(C(F)(F)F)C(F)(F)F)C(F)(C(F)(F)F)C(F)(F)F)C(F)(F)F	39.5 cc O2 /100 cc FC		1.820	219.8	6.4	110 °C					
CCCCC(C(F)(F)F)(C(F)(F)F)C(F)(F)F [(CF3)3 C(CH2)3 CH3]	41.2 cc O2 /100 cc FC						1.393 g/cc	198.3 cc/mole	5.98 Hb	101.5 °C	
C=CCC(C(F)(F)F)(C(F)(F)F)C(F)(F)F [(CF3)3 CCH2 CHCH2]	48 cc O2 /100 cc FC		1.442	180.31	6.0	76 °C					
FC(F)(F)C(F)(F)C(F)(F)C(F)(F)N(C(F)(F)C(F)(F)C(F)(F)C(F)(F)F)C(F)(F)C(F)(F)C(F)(F)C(F)(F)F [(n-C4 F9)3 N(FC-43), reference compound]	36.8 cc O2 /100 cc FC										38.9 cc O2 /100ccFC
